Values quoted from earlier work in US4127524A, “Novel dodecapeptides, intermediates therefor, and compositions and methods employing said dodecapeptides” (priority 1977, dated 1978).

Experiments:
[1] = system: partially purified brain opiate receptor sites
rat = settings: injected directly into the brain of the rat

In the case of “H-Tyr-Gly-Gly-Phe-Met-OH [methionine enkephalin]”, the “binding to partially purified brain opiate receptor sites” value [1] is given as “binds stereo-specifically” and the analgesic activity (rat) is given as “only weak analgesic agent of short duration”.
